Measurements published in patent US8329695B2, “Crystalline form of the free base N-[trans-4-[4-(cyclopropylmethyl)-1-piperazinyl]cyclohexyl]-4-[[(7r)-7-ethyl-5,6,7,8-tetrahydro-5-methyl-8-(1-methylethyl)-6-oxo-2-pteridinyl]amino]-3-methoxy-benzamide” (Boehringer Ingelheim International GmbH, priority 2007, dated 2012).

How the values were obtained:
Type in all cases: physicochemical
[1] = Solid state stability of the trihydrochloride salt forms; conditions: humidity lowered down to 10% r.h.
From the text: Under standard conditions the crystalline trihydrochloride salt form of N-[trans-4-[4-(cyclopropylmethyl)-1-piperazinyl]cyclohexyl]-4-[[(7R)-7-ethyl-5,6,7,8-tetrahydro-5-methyl-8-(1-methylethyl)-6-oxo-2-pteridinyl]amino]-3-methoxy-benzamide is present in the form of an hydrate and is obtainable after drying with a changing stoichiometry (1-3 water equivalents). The hydrate with a stoichiometry close to a trihydrate seems to be the stable hydrated form under ambient conditions and can be obtained after conditioning of the dried material. The crystal water is tightly bound.
The respective anhydrous form, obtained by heating a sample up to 140° C., is not stable.

[2] = Hygroscopical behaviour, water sorption isotherms (DVS-1); conditions: 25° C.
Protocol: To study the hygroscopical behaviour of this material, sorption isotherms are registered on a DVS-1 water sorption monitor from Surface Measurement Systems. Adsorption and desorption isotherms are performed at 25° C. with 10% r.h. step intervals ranging from 10% r.h. up to 90% r.h.

[3] = Solubility in aqueous media
From the text: Solubility in Aqueous Media

[4] = Intrinsic dissolution rate in aqueous media (rotating disc method); conditions: 37° C., 200 rpm
Protocol: The intrinsic dissolution rate of this crystalline form of the compound […] which maintains a constant surface area. 5 mg drug substance is compressed to form a disc at 356.1 N for 60 s. These discs are mounted to specially designed sample holders which fit into a Sotax dissolution tester. The dissolution media (37° C.) are stirred at 200 rpm. Samples are automatically withdrawn every second minute from the dissolution vessel and assayed via UV spectrophotometry. The intrinsic dissolution rate expressed in μg/cm^2/min is calculated using the slope of the concentration versus time plot and from the linear portion of the slope of the dissolution curve, volume of dissolution medium (35 ml) and area (diameter: 2 mm) of the exposed disk.

CC[C@@H]1C(=O)N(C)c2cnc(Nc3ccc(C(=O)N[C@H]4CC[C@H](N5CCN(CC6CC6)CC5)CC4)cc3OC)nc2N1C(C)C.Cl.Cl.Cl.O.O.O [formula (I) trihydrochloride, N-[trans-4-[4-(cyclopropylmethyl)-1-piperazinyl]cyclohexyl]-4-[[(7R)-7-ethyl-5,6,7,8-tetrahydro-5-methyl-8-(1-methylethyl)-6-oxo-2-pteridinyl]amino]-3-methoxy-benzamide trihydrochloride trihydrate]
weight loss on lowering the humidity [1]: does not result in a significant weight loss

CC[C@@H]1C(=O)N(C)c2cnc(Nc3ccc(C(=O)N[C@H]4CC[C@H](N5CCN(CC6CC6)CC5)CC4)cc3OC)nc2N1C(C)C [formula (I), N-[trans-4-[4-(cyclopropylmethyl)-1-piperazinyl]cyclohexyl]-4-[[(7R)-7-ethyl-5,6,7,8-tetrahydro-5-methyl-8-(1-methylethyl)-6-oxo-2-pteridinyl]amino]-3-methoxy-benzamide]
hygroscopicity (in words) ([2]; 10% r.h. up to 90% r.h.): not hygroscopic
reversibility of the water-uptake ([2]; adsorption and desorption isotherms): completely reversible
uptake of water ([2]; over the range 10-90% r.h.): approx. 0.7%
solubility ([3]; Sörensen buffer, aqueous buffer, thermodynamic from solid, Sörensen pH 9.0, pH of the saturated solution 9.2): 3 µg/mL
solubility ([3]; Sörensen buffer, aqueous buffer, thermodynamic from solid, Sörensen pH 10, pH of the saturated solution 9.9): 7 µg/mL
solubility ([3]; Sörensen buffer, aqueous buffer, thermodynamic from solid, Sörensen pH 11, pH of the saturated solution 10.5): 9 µg/mL
solubility ([3]; aqueous buffer, thermodynamic from solid, McIlvaine buffer pH 2.2, pH of the saturated solution 2.8): > 10000 µg/mL
solubility ([3]; aqueous buffer, thermodynamic from solid, McIlvaine buffer pH 3.0, pH of the saturated solution 3.6): > 10000 µg/mL
solubility ([3]; aqueous buffer, thermodynamic from solid, McIlvaine buffer pH 4.0, pH of the saturated solution 4.6): > 10000 µg/mL
solubility ([3]; aqueous buffer, thermodynamic from solid, McIlvaine buffer pH 5.0, pH of the saturated solution 5.5): > 10000 µg/mL
solubility ([3]; aqueous buffer, thermodynamic from solid, McIlvaine buffer pH 6.0, pH of the saturated solution 6.3): > 10000 µg/mL
solubility ([3]; aqueous buffer, thermodynamic from solid, McIlvaine buffer pH 7.0, pH of the saturated solution 7.2): > 10000 µg/mL
solubility ([3]; aqueous buffer, thermodynamic from solid, McIlvaine buffer pH 7.4, pH of the saturated solution 7.4): 2500 µg/mL
solubility profile in aqueous media (conclusion in words) ([3]; aqueous media of Table 1): good solubility profile
solubility ([3]; pH 1.1, simulated gastric fluid, thermodynamic from solid, medium 0.1 N HCl, pH of the saturated solution 1.1): > 10000 µg/mL
solubility ([3]; pH 6.8, simulated gastric fluid, thermodynamic from solid, medium 0.01 N HCl, pH of the saturated solution 6.8): 7600 µg/mL
solubility ([3]; pH 9.6, thermodynamic from solid, medium water, pH of the saturated solution 9.6): 110 µg/mL
solubility ([3]; pH 11.7, aqueous buffer, thermodynamic from solid, 0.01 N NaOH, pH of the saturated solution 11.7): 8 µg/mL
solubility ([3]; pH 12.8, aqueous buffer, thermodynamic from solid, 0.01 N NaOH (second line), pH of the saturated solution 12.8): 3 µg/mL
solubility ([3]; phosphate buffer, aqueous buffer, thermodynamic from solid, Phosphate pH 6.0, pH of the saturated solution 6.5): > 10000 µg/mL
solubility ([3]; phosphate buffer, aqueous buffer, thermodynamic from solid, Phosphate pH 7.0, pH of the saturated solution 7.3): 10000 µg/mL
solubility ([3]; phosphate buffer, aqueous buffer, thermodynamic from solid, Phosphate pH 8.0, pH of the saturated solution 8.1): 36 µg/mL
dissolution rate ([4]; pH of aqueous medium 1.1): 6600 μg/cm^2/min
dissolution rate ([4]; pH of aqueous medium 3.1): 2760 μg/cm^2/min
dissolution rate ([4]; pH of aqueous medium 4.1): 1810 μg/cm^2/min
dissolution rate ([4]; pH of aqueous medium 5.0): 1390 μg/cm^2/min
dissolution rate ([4]; pH of aqueous medium 6.1): 1180 μg/cm^2/min
dissolution rate ([4]; pH of aqueous medium 7.5): <50 μg/cm^2/min
